From patent US20070128217A1 (priority 2003, published 2007) come the findings set out here.

Test [1] concerns control sera (pooled serum of ten healthy LUMC hospital workers; commercial negative donor pooled serum from the Dutch bloodbank). In kind it is binding, human. On the set-up: Binding of Control serum LUMC to linear peptides / Binding of Control serum Blood-bank to linear peptides / Binding of Control serum LUMC to looped peptides / Binding of Control Serum Blood-Bank to Looped peptides / Binding of Control serum LUMC to linear peptides of the protein M of SARS-CoV Urbani / Binding of Control serum Blood-bank to linear peptides of the protein M of SARS-CoV Urbani / Binding of Control serum LUMC to looped peptides of the protein M of SARS-CoV Urbani / Binding of Control Serum Blood-Bank to Looped peptides of the protein M of SARS-CoV Urbani: unit not given here.

Test [2] has as its system rabbit serum obtained by immunizing a rabbit with the SARS-CoV strain Frankfurt 1. In kind it is binding. On the set-up: Binding of a rabbit serum to linear peptides / Binding of a rabbit serum to looped peptides / Rabbit serum linear peptides / Rabbit serum looped peptides / Binding of a rabbit serum to linear peptides of protein N of SARS-CoV Urbani (Rabbit serum linear peptides) / Binding of a rabbit serum to looped/cyclic peptides of protein N of SARS-CoV Urbani (Rabbit serum looped peptides): unit not given here.

Regarding INCQDPAGGALIARC, in test [1], the “Binding of Control Serum Blood-Bank to Looped peptides” value was determined as 0.9, the “Binding of Control serum Blood-bank to linear peptides” value turned out to be 1.1, the “Binding of Control serum LUMC to linear peptides” value was determined as 0.6 and the “Binding of Control serum LUMC to looped peptides” value is 0.7. For the same sequence, in test [2], the “Rabbit serum linear peptides” value is 0.5 and the “Rabbit serum looped peptides” value came to 0.6.
Regarding INWVTGGIAIAMACI, in test [1], the “Binding of Control Serum Blood-Bank to Looped peptides of the protein M of SARS-CoV Urbani” value came to 0.6, the “Binding of Control serum Blood-bank to linear peptides of the protein M of SARS-CoV Urbani” value was determined as 0.8, the “Binding of Control serum LUMC to linear peptides of the protein M of SARS-CoV Urbani” value is 0.5 and the “Binding of Control serum LUMC to looped peptides of the protein M of SARS-CoV Urbani” value was determined as 0.9. In test [2], the “Rabbit serum linear peptides” value is given as 0.5 and the “Rabbit serum looped peptides” value amounted to 0.4.
Take ISSIVRQLFKPLTKK: in test [1], the “Binding of Control Serum Blood-Bank to Looped peptides of the protein X3 of SARS-CoV Urbani” value was 0.8, the “Binding of Control serum Blood-bank to linear peptides of the protein X3 of SARS-CoV Urbani” value is on record as 0.8, the “Binding of Control serum LUMC to linear peptides of the protein X3 of SARS-CoV Urbani” value amounted to 0.9 and the “Binding of Control serum LUMC to looped peptides of the protein X3 of SARS-CoV Urbani” value was found to be 0.7. Besides, in test [2], the “Rabbit serum linear peptides” value came to 0.3 and the “Rabbit serum looped peptides” value is 0.5.
IVRQLFKPLTKKNYS: in test [1], the “Binding of Control Serum Blood-Bank to Looped peptides of the protein X3 of SARS-CoV Urbani” value is 0.9, the “Binding of Control serum Blood-bank to linear peptides of the protein X3 of SARS-CoV Urbani” value is listed as 0.9, the “Binding of Control serum LUMC to linear peptides of the protein X3 of SARS-CoV Urbani” value is given as 0.8 and the “Binding of Control serum LUMC to looped peptides of the protein X3 of SARS-CoV Urbani” value was found to be 0.9. Moreover, in test [2], the “Rabbit serum linear peptides” value was 0.4 and the “Rabbit serum looped peptides” value turned out to be 0.6.
On to KDPPNVQIHTIDGSS, for which, in test [1], the “Binding of Control Serum Blood-Bank to Looped peptides” value was determined as 1.1, the “Binding of Control serum Blood-bank to linear peptides” value is 0.3, the “Binding of Control serum LUMC to linear peptides” value turned out to be 0.3 and the “Binding of Control serum LUMC to looped peptides” value was found to be 1.1. Also, in test [2], the “Binding of a rabbit serum to linear peptides” value is given as 0.1 and the “Binding of a rabbit serum to looped peptides” value is 0.9.
KKTTKLVVILRIGTQ: in test [1], the “Binding of Control Serum Blood-Bank to Looped peptides” value came out at 0.6, the “Binding of Control serum Blood-bank to linear peptides” value turned out to be 0.4, the “Binding of Control serum LUMC to linear peptides” value is 0.5 and the “Binding of Control serum LUMC to looped peptides” value is 0.8. Further, the “Recognition of the peptide by the rabbit serum” value in test [2] is “recognized”.
Consider KLKEDYQIGGYSEDR, for which, in test [1], the “Binding of Control Serum Blood-Bank to Looped peptides” value amounted to 0.5, the “Binding of Control serum Blood-bank to linear peptides” value is reported as 0.5, the “Binding of Control serum LUMC to linear peptides” value stood at 0.5 and the “Binding of Control serum LUMC to looped peptides” value amounted to 0.6. In test [2], the “Binding of a rabbit serum to linear peptides” value turned out to be 0.1 and the “Binding of a rabbit serum to looped peptides” value came out at 0.5.
Take KLNTDHAGSNDNIAL: in test [1], the “Binding of Control Serum Blood-Bank to Looped peptides of the protein M of SARS-CoV Urbani” value worked out at 1.0, the “Binding of Control serum Blood-bank to linear peptides of the protein M of SARS-CoV Urbani” value worked out at 0.9, the “Binding of Control serum LUMC to linear peptides of the protein M of SARS-CoV Urbani” value turned out to be 0.7 and the “Binding of Control serum LUMC to looped peptides of the protein M of SARS-CoV Urbani” value was 0.9. Moreover, in test [2], the “Rabbit serum linear peptides” value was 0.4 and the “Rabbit serum looped peptides” value was 0.3.
With KLVKDPPNVQIHTID, in test [1], the “Binding of Control Serum Blood-Bank to Looped peptides” value was determined as 0.4, the “Binding of Control serum Blood-bank to linear peptides” value is given as 0.4, the “Binding of Control serum LUMC to linear peptides” value turned out to be 0.5 and the “Binding of Control serum LUMC to looped peptides” value was found to be 0.4. Besides, in test [2], the “Binding of a rabbit serum to linear peptides” value amounted to 0.1 and the “Binding of a rabbit serum to looped peptides” value was determined as 0.4.
In the case of KNYSELDDEEPMELD, in test [1], the “Binding of Control Serum Blood-Bank to Looped peptides of the protein X3 of SARS-CoV Urbani” value is on record as 0.6, the “Binding of Control serum Blood-bank to linear peptides of the protein X3 of SARS-CoV Urbani” value is given as 0.7, the “Binding of Control serum LUMC to linear peptides of the protein X3 of SARS-CoV Urbani” value came to 0.6 and the “Binding of Control serum LUMC to looped peptides of the protein X3 of SARS-CoV Urbani” value is 0.8. Besides, in test [2], the “Rabbit serum linear peptides” value was 0.3 and the “Rabbit serum looped peptides” value is on record as 0.2.
Consider KPLTKKNYSELDDEE, for which, in test [1], the “Binding of Control Serum Blood-Bank to Looped peptides of the protein X3 of SARS-CoV Urbani” value is 0.8, the “Binding of Control serum Blood-bank to linear peptides of the protein X3 of SARS-CoV Urbani” value was 0.7, the “Binding of Control serum LUMC to linear peptides of the protein X3 of SARS-CoV Urbani” value worked out at 0.8 and the “Binding of Control serum LUMC to looped peptides of the protein X3 of SARS-CoV Urbani” value is recorded as 0.7. In test [2], the “Rabbit serum linear peptides” value is recorded as 0.4 and the “Rabbit serum looped peptides” value is given as 0.5.
With KPTVYVYSRVKNLNS, in test [1], the “Binding of Control Serum Blood-Bank to Looped peptides” value is 0.9, the “Binding of Control serum Blood-bank to linear peptides” value amounted to 0.7, the “Binding of Control serum LUMC to linear peptides” value is given as 0.8 and the “Binding of Control serum LUMC to looped peptides” value stood at 0.9. Also, in test [2], the “Binding of a rabbit serum to linear peptides” value turned out to be 0.6 and the “Binding of a rabbit serum to looped peptides” value turned out to be 0.9.
For the sequence KTMSLYMAISPKFTT, in test [1], the “Binding of Control Serum Blood-Bank to Looped peptides” value came to 0.7, the “Binding of Control serum Blood-bank to linear peptides” value is 0.7, the “Binding of Control serum LUMC to linear peptides” value was 0.6 and the “Binding of Control serum LUMC to looped peptides” value is 1.0. For the same sequence, in test [2], the “Binding of a rabbit serum to linear peptides” value is on record as 0.3 and the “Binding of a rabbit serum to looped peptides” value stood at 0.8.
Take KTTKLVVILRIGTQV: in test [1], the “Binding of Control Serum Blood-Bank to Looped peptides” value is reported as 0.7, the “Binding of Control serum Blood-bank to linear peptides” value amounted to 0.4, the “Binding of Control serum LUMC to linear peptides” value came to 0.5 and the “Binding of Control serum LUMC to looped peptides” value is recorded as 0.7. Also, the “Recognition of the peptide by the rabbit serum” value in test [2] is recorded as “recognized”.
For the sequence LCAYCCNIVNVSLVK, in test [1], the “Binding of Control Serum Blood-Bank to Looped peptides” value is reported as 0.8, the “Binding of Control serum Blood-bank to linear peptides” value is listed as 1.1, the “Binding of Control serum LUMC to linear peptides” value amounted to 0.8 and the “Binding of Control serum LUMC to looped peptides” value amounted to 0.7. In addition, in test [2], the “Binding of a rabbit serum to linear peptides” value came out at 0.7 and the “Binding of a rabbit serum to looped peptides” value was 0.4.
LGRCDIKDLPKEITV: in test [1], the “Binding of Control Serum Blood-Bank to Looped peptides of the protein M of SARS-CoV Urbani” value amounted to 0.8, the “Binding of Control serum Blood-bank to linear peptides of the protein M of SARS-CoV Urbani” value is 0.7, the “Binding of Control serum LUMC to linear peptides of the protein M of SARS-CoV Urbani” value is given as 0.5 and the “Binding of Control serum LUMC to looped peptides of the protein M of SARS-CoV Urbani” value came to 0.8. Moreover, in test [2], the “Rabbit serum linear peptides” value is 0.1 and the “Rabbit serum looped peptides” value is given as 0.6.
For LIIIMRTFRIAIWNL, in test [1], the “Binding of Control Serum Blood-Bank to Looped peptides of the protein X3 of SARS-CoV Urbani” value is given as 0.6, the “Binding of Control serum Blood-bank to linear peptides of the protein X3 of SARS-CoV Urbani” value was 0.7, the “Binding of Control serum LUMC to linear peptides of the protein X3 of SARS-CoV Urbani” value was found to be 0.6 and the “Binding of Control serum LUMC to looped peptides of the protein X3 of SARS-CoV Urbani” value came out at 0.7. In addition, in test [2], the “Rabbit serum linear peptides” value is recorded as 0.5 and the “Rabbit serum looped peptides” value was found to be 0.3.
On to LKTMSLYMAISPKFT, for which, in test [1], the “Binding of Control Serum Blood-Bank to Looped peptides” value is 0.6, the “Binding of Control serum Blood-bank to linear peptides” value was found to be 0.7, the “Binding of Control serum LUMC to linear peptides” value amounted to 0.6 and the “Binding of Control serum LUMC to looped peptides” value came out at 0.6. Besides, in test [2], the “Binding of a rabbit serum to linear peptides” value was determined as 0.1 and the “Binding of a rabbit serum to looped peptides” value is recorded as 0.4.
